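How tested: cells in 96-well plates exposed to compound for 48 hours at five concentrations. The concentration for 50% growth inhibition is given as GI50. TGI: total growth inhibition.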
Assays:
Assay in all cases: NCI-60 cell line screen, 48 h
[1] = tested on: 786-0 renal
[2] = tested on: A498 renal
[3] = tested on: A549 NSCLC
[4] = tested on: ACHN renal
[5] = tested on: BT-549 breast
[6] = tested on: CAKI-1 renal
[7] = tested on: CCRF-CEM leukemia
[8] = tested on: COLO 205 colon
[9] = tested on: DU-145 prostate
[10] = tested on: EKVX NSCLC
[11] = tested on: HCC-2998 colon
[12] = tested on: HCT-116 colon
[13] = tested on: HCT-15 colon
[14] = tested on: HL-60(TB) leukemia
[15] = tested on: HOP-62 NSCLC
[16] = tested on: HS 578T breast
[17] = tested on: HT29 colon
[18] = tested on: IGROV1 ovarian
[19] = tested on: K-562 leukemia
[20] = tested on: KM12 colon
[21] = tested on: LOX IMVI melanoma
[22] = tested on: M14 melanoma
[23] = tested on: MALME-3M melanoma
[24] = tested on: MCF7 breast
[25] = tested on: MDA-MB-231 breast
[26] = tested on: MDA-MB-435
[27] = tested on: MOLT-4 leukemia
[28] = tested on: NCI-H226 lung
[29] = tested on: NCI-H23 lung
[30] = tested on: NCI-H460 lung
[31] = tested on: NCI-H522 lung
[32] = tested on: NCI/ADR-RES ovarian
[33] = tested on: OVCAR-3 ovarian
[34] = tested on: OVCAR-4 ovarian
[35] = tested on: OVCAR-5 ovarian
[36] = tested on: OVCAR-8 ovarian
[37] = tested on: PC-3 prostate
[38] = tested on: RXF 393 renal
[39] = tested on: SF-268 CNS
[40] = tested on: SF-295 CNS
[41] = tested on: SF-539 CNS
[42] = tested on: SK-MEL-2 melanoma
[43] = tested on: SK-MEL-28 melanoma
[44] = tested on: SK-MEL-5 melanoma
[45] = tested on: SK-OV-3 ovarian
[46] = tested on: SN12C renal
[47] = tested on: SNB-19 CNS
[48] = tested on: SNB-75 CNS
[49] = tested on: SR leukemia
[50] = tested on: SW-620 colon
[51] = tested on: T-47D breast
[52] = tested on: TK-10 renal
[53] = tested on: U251 CNS
[54] = tested on: UACC-257 melanoma
[55] = tested on: UACC-62 melanoma
[56] = tested on: UO-31 renal

## Oc1ccc(/C=C/c2ccc(O)cc2)cc1
[1]
  GI50: 2.17 µM
  TGI: 7.93 µM
[2]
  GI50: 10.3 µM
  TGI: 99.6 µM
[3]
  GI50: 2.69 µM
  TGI: > 38.5 µM
[4]
  GI50: 1.25 µM
  TGI: > 61.7 µM
[5]
  GI50: 1.26 µM
  TGI: > 90 µM
[6]
  GI50: 3.5 µM
  TGI: > 24.1 µM
[7]
  GI50: 0.219 µM
  TGI: 0.761 µM
[8]
  GI50: > 55.1 µM
  TGI: > 100 µM
[9]
  GI50: 3.84 µM
  TGI: 44 µM
[10]
  GI50: 9.15 µM
  TGI: > 100 µM
[11]
  GI50: 3.59 µM
  TGI: 18 µM
[12]
  GI50: 4.28 µM
  TGI: > 100 µM
[13]
  GI50: 3.13 µM
  TGI: > 100 µM
[14]
  GI50: 0.252 µM
  TGI: 0.738 µM
[15]
  GI50: 5.59 µM
  TGI: > 96.5 µM
[16]
  GI50: 4.09 µM
  TGI: > 83.9 µM
[17]
  GI50: 29 µM
  TGI: > 100 µM
[18]
  GI50: 0.72 µM
[19]
  GI50: 2.65 µM
  TGI: > 100 µM
[20]
  GI50: 2.73 µM
  TGI: > 80.7 µM
[21]
  GI50: 2.85 µM
  TGI: 20.4 µM
[22]
  GI50: 3.82 µM
  TGI: 58.9 µM
[23]
  GI50: 18.1 µM
  TGI: > 100 µM
[24]
  GI50: 4.41 µM
  TGI: > 100 µM
[25]
  GI50: 2.78 µM
  TGI: > 100 µM
[26]
  GI50: 6.64 µM
  TGI: > 100 µM
[27]
  GI50: 2.18 µM
  TGI: 45.1 µM
[28]
  GI50: 5.63 µM
  TGI: > 100 µM
[29]
  GI50: 3.82 µM
  TGI: > 90.5 µM
[30]
  GI50: 3.37 µM
  TGI: > 100 µM
[31]
  GI50: 0.465 µM
  TGI: 1.71 µM
[32]
  GI50: 3.25 µM
  TGI: > 95.4 µM
[33]
  GI50: 0.971 µM
  TGI: > 92.1 µM
[34]
  GI50: 8.78 µM
  TGI: > 100 µM
[35]
  GI50: 28.9 µM
  TGI: > 100 µM
[36]
  GI50: 2.44 µM
  TGI: > 61.1 µM
[37]
  GI50: 4.02 µM
  TGI: > 100 µM
[38]
  GI50: 2.94 µM
  TGI: > 100 µM
[39]
  GI50: 2.15 µM
  TGI: > 94.7 µM
[40]
  GI50: 5.91 µM
  TGI: > 84.7 µM
[41]
  GI50: 2.45 µM
  TGI: 8.8 µM
[42]
  GI50: 9.79 µM
  TGI: > 89.2 µM
[43]
  GI50: 30.1 µM
  TGI: > 100 µM
[44]
  GI50: 3.04 µM
  TGI: > 68.3 µM
[45]
  GI50: 16.1 µM
  TGI: > 100 µM
[46]
  GI50: 2.97 µM
  TGI: > 100 µM
[47]
  GI50: 18.2 µM
  TGI: > 100 µM
[48]
  GI50: 1.89 µM
  TGI: > 100 µM
[49]
  GI50: 0.204 µM
  TGI: 0.703 µM
[50]
  GI50: 7.52 µM
  TGI: > 100 µM
[51]
  GI50: 5.7 µM
  TGI: > 100 µM
[52]
  GI50: 9.62 µM
  TGI: > 100 µM
[53]
  GI50: 3.09 µM
  TGI: > 100 µM
[54]
  GI50: 18.6 µM
  TGI: > 100 µM
[55]
  GI50: 2.36 µM
  TGI: 16.9 µM
[56]
  GI50: 1.38 µM
  TGI: > 100 µM
